Reference: patent US7994204B2, “Binding inhibitor of sphingosine-1-phosphate” (Taisho Pharmaceutical Co., Ltd, priority 2006, dated 2011)

Tests used:
[1] = target: T1, human Edg-1 (S1P1) (Homo sapiens, UniProt P21453); experiment: S1P1 binding inhibition test (membrane, [33P]-S1P); settings: for inhibition at 10 µM: compound 10 μM, [33P]-S1P 0.1 nM, human Edg-1 (S1P1) HEK-293 membrane fraction, read-out: Binding test (membrane) % inhibition (10 μM); for IC50: membrane system binding test, various concentrations
T1 construct: expressed in transfected cells; host or cells: HEK-293
T1 sequence (P21453 whole entry): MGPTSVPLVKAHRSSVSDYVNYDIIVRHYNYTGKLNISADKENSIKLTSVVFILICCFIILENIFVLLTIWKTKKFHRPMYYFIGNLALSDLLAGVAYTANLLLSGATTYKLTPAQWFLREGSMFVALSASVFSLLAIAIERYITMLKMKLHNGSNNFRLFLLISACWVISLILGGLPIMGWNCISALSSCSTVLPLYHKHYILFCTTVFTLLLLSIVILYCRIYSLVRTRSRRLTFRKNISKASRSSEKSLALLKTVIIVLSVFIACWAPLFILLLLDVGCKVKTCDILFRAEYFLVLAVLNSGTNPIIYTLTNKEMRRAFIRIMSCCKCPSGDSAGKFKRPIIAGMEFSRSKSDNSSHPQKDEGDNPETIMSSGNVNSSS
Method: The membrane fraction was obtained by treating the cells with a solubilizing buffer (1 mM Tris/HCl, pH 7.2) for 10 minutes on ice, centrifuging at 1000×g for 5 minutes to remove insoluble fractions, and then centrifuging at 40000×g for 30 minutes at 4° C. The resulting membrane fraction was dissolved in a binding buffer (20 mM Tris-HCl, pH 7.4, 100 mM NaCl, 15 mM NaF, 2 mM deoxypyridoxine, 4 mg/mL fatty acid-free BSA), and then [^33P]-S1P (manufactured by ARC, final concentration 0.1 nM) and a DMSO solution (final concentration of the compound 10^−5 M, final concentration of DMSO 0.1%) of the test compound were added. Thereafter, the mixture was stirred and then treated for one hour at 30° C. Using a harvester, the membrane fraction was harvested onto unifilter-96 GF/C filter (manufactured by Perkin Elmer), washing was carried out four times with the binding buffer, and the filter was dried. Twenty five μL Microscint 0 (manufactured by Perkin Elmer) was added, and radioactivity was measured using Top Count NXT (manufactured by Packard) to calculate the amount (A) of [^33P]-S1P bound to the membrane fraction at the time when the compound was added.
The same procedure was carried out in the absence of the test compound, and the amount (B) of [^33P]-S1P bound was calculated. Further, the same procedure was carried out in the absence of the test compound by use of HEK-293 cells to which no Edg-1 (S1P1) gene was introduced, and the background amount (C) of [^33P]-S1P bound was calculated.
Inhibition rate (%)=[1−(A−C)/(B−C)]×100.
Moreover, the concentration required for a test compound to produce 50% inhibition of the binding caused in the absence of the test compound was also calculated (IC50). The above membrane system binding test was performed in the presence of a test compound at various concentrations to calculate the inhibition rate of Edg-1(S1P1) binding at each concentration according to the above equation, followed by calculating an IC50 value for each compound with data analysis software, Origin (Lightstone Corp., Japan).

Row | melting point | inhibition at 10 µM [1] | IC50 [1] | Kd ([1]; human Edg-1 (S1P1) gene transferred HEK-293 membrane fraction) | Compound
1 | 154.5 to 155.5 °C | – | – | – | CCc1c(C(C)NS(=O)(=O)c2ccc3c(Cl)cccc3c2)nn(C)c1Oc1ccc(C)cc1 (stereo not shown) [Compound 181]
2 | 137.5 to 138.5 °C | – | – | – | CCn1c(C(C)NS(=O)(=O)c2ccc3c(Cl)cccc3c2)nc(Cl)c1Oc1ccc(C)cc1 (stereo not shown) [Compound 182]
3 | 205.5 to 206 °C | 100% | 3.7 nM | – | CCn1c(C(C)NS(=O)(=O)c2ccc3c(Cl)cccc3c2)cnc1Oc1cccc(N2CCN(C)CC2)c1 (stereo not shown) [Compound 185]
4 | 156 to 157 °C | 99.8% | ≤ 70 nM | – | CCn1c(C(C)NS(=O)(=O)c2ccc(Cl)c(Cl)c2)cnc1Oc1ccc(F)cc1 (stereo not shown) [Compound 186]
5 | 138 to 141 °C | 101% | ≤ 35 nM | – | CCn1c(C(C)NS(=O)(=O)c2ccc3c(Cl)cccc3c2)cnc1Oc1ccc(F)cc1 (stereo not shown) [Compound 187]
6 | 118 to 120 °C | 101% | 23 nM | – | CCC(NS(=O)(=O)c1ccc2c(Cl)cccc2c1)c1cnc(Oc2ccc(F)cc2)n1CC (stereo not shown) [Compound 192]
7 | 114.5 to 115.5 °C | 98.6% | – | – | CCn1c(C(Cc2ccccc2)NS(=O)(=O)c2ccc(Cl)c(Cl)c2)cnc1Oc1ccc(F)cc1 (stereo not shown) [Compound 193]
8 | 172.5 to 174 °C | 93% | ≤ 70 nM | – | CCn1c(C(Cc2ccccc2)NS(=O)(=O)c2ccc3c(Cl)cccc3c2)cnc1Oc1ccc(F)cc1 (stereo not shown) [Compound 194]
9 | 123.5 to 124 °C | 88.9% | – | – | CCn1c(C(Cc2ccc(C)cc2)NS(=O)(=O)c2ccc(Cl)c(Cl)c2)cnc1Oc1ccc(F)cc1 (stereo not shown) [Compound 196]
10 | 166 to 167 °C | 95.3% | – | – | CCn1c(C(Cc2ccc(C)cc2)NS(=O)(=O)c2ccc3c(Cl)cccc3c2)cnc1Oc1ccc(F)cc1 (stereo not shown) [Compound 197]
11 | 175 to 176 °C | 97.1% | 17 nM | – | CCn1c(C(Cc2ccc(F)cc2)NS(=O)(=O)c2ccc3c(Cl)cccc3c2)cnc1Oc1ccc(F)cc1 (stereo not shown) [Compound 200]
12 | 157.5 to 158 °C | – | – | – | CCn1c(C(NS(=O)(=O)c2ccc(Cl)c(Cl)c2)c2ccccc2)cnc1Oc1ccc(F)cc1 (stereo not shown) [Compound 201]
13 | 171.5 to 172.5 °C | 69.3% | – | – | CCn1c(C(NS(=O)(=O)c2ccc3c(Cl)cccc3c2)c2ccccc2)cnc1Oc1ccc(F)cc1 (stereo not shown) [Compound 202]
14 | 172 to 173 °C | 98.5% | – | – | CCn1c(C(C)NS(=O)(=O)c2ccc(Cl)c(Cl)c2)cnc1Oc1ccc2ccccc2c1 (stereo not shown) [Compound 206]
15 | 179.5 to 180.5 °C | 92.2% | – | – | CC(NS(=O)(=O)c1ccc(Cl)c(Cl)c1)c1cnc(Oc2ccc(F)cc2)n1C (stereo not shown) [Compound 211]
16 | 134 to 135 °C | 92% | – | – | CC(NS(=O)(=O)c1ccc2c(Cl)cccc2c1)c1cnc(Oc2ccc(F)cc2)n1C (stereo not shown) [Compound 212]
17 | 216.5 to 217.5 °C | – | – | – | CCn1c(Oc2ccc(F)cc2)nc(-c2ccccc2)c1C(C)NS(=O)(=O)c1ccc(Cl)c(Cl)c1 (stereo not shown) [Compound 227]

Second part, the compound before the results:

Row | Compound | melting point | inhibition at 10 µM [1] | IC50 [1] | Kd ([1]; human Edg-1 (S1P1) gene transferred HEK-293 membrane fraction)
18 | CCn1c(Oc2ccc(F)cc2)nc(C)c1C(C)NS(=O)(=O)c1ccc(Cl)c(Cl)c1 (stereo not shown) [Compound 188, 3,4-Dichloro-N-{1-[3-ethyl-2-(4-fluorophenoxy)-5-methyl-3H-imidazol-4-yl]-ethyl}-benzenesulfonamide] | 119.5 to 120.5 °C | 100% | – | –
19 | CCn1c(C(C)NS(=O)(=O)c2ccc(Cl)c(Cl)c2)cnc1Oc1cccc(N2CCOCC2)c1 (stereo not shown) [Compound 190] | 167 to 169 °C | 101% | 10.9 nM | –
20 | CCn1c(C(C)NS(=O)(=O)c2ccc(Cl)c(Cl)c2)cnc1Oc1ccc(C)nc1 (stereo not shown) [Compound 195] | 174 to 175 °C | 96.1% | 20 nM | –
21 | CCn1c(C(C)NS(=O)(=O)c2ccc(Cl)c(Cl)c2)cnc1Oc1cccc(N(C)C)c1 (stereo not shown) [Compound 198] | 171 to 172 °C | 97.8% | 10.3 nM | –
22 | CCn1c(C(Cc2ccc(F)cc2)NS(=O)(=O)c2ccc(Cl)c(Cl)c2)cnc1Oc1ccc(F)cc1 (stereo not shown) [Compound 199] | 145.5 to 146.5 °C | 97.3% | – | –
23 | CCn1c(C(C)NS(=O)(=O)c2ccc(Cl)c(Cl)c2)cnc1Oc1ccc(OC)cc1 (stereo not shown) [Compound 203] | 146.5 to 148 °C | 102% | 23.5 nM | –
24 | CCn1c(C(C)NS(=O)(=O)c2ccc(Cl)c(Cl)c2)cnc1Oc1ccccc1 (stereo not shown) [Compound 204] | 166.5 to 167.5 °C | 95.7% | – | –
25 | CCn1c(C(Cc2ccc(Cl)cc2)NS(=O)(=O)c2ccc(Cl)c(Cl)c2)cnc1Oc1ccc(F)cc1 (stereo not shown) [Compound 205] | 155.5 to 156.5 °C | 94.4% | – | –
26 | CCn1c(C(C)NS(=O)(=O)c2ccc(Cl)c(Cl)c2)cnc1Oc1cccc(C2CCN(C)CC2)c1 (stereo not shown) [Compound 207] | 161 to 163.5 °C | 101% | 18.2 nM | –
27 | CCn1c(C(C)NS(=O)(=O)c2ccc(Cl)c(Cl)c2)cnc1Oc1cccc(N2CCCCC2)c1 (stereo not shown) [Compound 208] | 169.5 to 170.5 °C | 99.6% | ≤ 15 nM | –
28 | CCn1c(C(C)NS(=O)(=O)c2ccc(Cl)c(Cl)c2)cnc1Oc1cccc(-n2ccnc2)c1 (stereo not shown) [Compound 209] | 170 to 171 °C | 98.9% | 42 nM | –
29 | CCn1c(CNS(=O)(=O)c2ccc(Cl)c(Cl)c2)cnc1Oc1ccc(F)cc1 [Compound 210] | 154 to 155 °C | 90.6% | – | –
30 | CCn1c(C(C)NS(=O)(=O)c2ccc(Cl)c(Cl)c2)cnc1Oc1ccc2ccncc2c1 (stereo not shown) [Compound 213] | 185.5 to 187.5 °C | 99.6% | 49 nM | –
31 | CCCCCCCCCCCCCCCCCCOc1ncc(C(C)NS(=O)(=O)c2ccc(Cl)c(Cl)c2)n1CC (stereo not shown) [Compound 238] | 117 to 118 °C | – | – | –
32 | CCn1c(C(C)NS(=O)(=O)c2ccc(Cl)c(Cl)c2)cnc1OC (stereo not shown) [Compound 240] | 199 to 200 °C | – | – | –
33 | CCn1c(C(C)NS(=O)(=O)c2ccc(Cl)c(Cl)c2)cnc1Oc1ccc2cc[nH]c2c1 (stereo not shown) [Compound 250, 3,4-Dichloro-N-{1-[3-ethyl-2-(1H-indol-6-yloxy)-3H-imidazol-4-yl]-ethyl}-benzenesulfonamide] | – | 101% | 20.5 nM | –
34 | CCn1c(C(C)NS(=O)(=O)c2ccc(Cl)c(Cl)c2)cnc1OCCCN1CCN(C)CC1 (stereo not shown) [Compound 251] | – | 96.3% | – | –
35 | CC[C@@H](NS(=O)(=O)c1ccc(Cl)c(Cl)c1)c1cnc(Oc2ccc(F)cc2)n1CC [Compound 253, (R)-(+)-3,4-Dichloro-N-{1-[3-ethyl-2-(4-fluorophenoxy)-3H-imidazol-4-yl]-propyl}-benzenesulfonamide] | – | 100% | 27.5 nM | –
36 | CC[C@H](NS(=O)(=O)c1ccc(Cl)c(Cl)c1)c1cnc(Oc2ccc(F)cc2)n1CC [Compound 254, (S)-(−)-3,4-Dichloro-N-{1-[3-ethyl-2-(4-fluorophenoxy)-3H-imidazol-4-yl]-propyl}-benzenesulfonamide] | – | 68.6% | – | –
37 | CCCCCCCCCCCCC/C=C/[C@@H](O)[C@@H](N)COP(=O)(O)O [[^33P]-S1P, Sphingosine-1-phosphate] | – | – | – | 0.15 nM
